The record followed here is patent US20260041706A1, “MUCUS MEMBRANE FORMULATIONS AND USES THEREOF” (priority 2022, published 2026).

Several values for one entry are separate records, joined by “and”; a condition that tells them apart may be missing. Identical values can stand only once. Like-named read-outs stand apart in the source and are kept apart here.

In data set [1] the test system is HKx31 Influenza A virus (H3N2). The data set is described as follows: In vitro neutralization assay with Influenza A (plaque assay in MDCK cells). It counts as cell-based. To be noted: 10 or 60 min incubation; agent evaluated individually.
The conditions of data set [2]: for fluorescence intensity (droplet capture) relative to mucus or biopolymer mixture without surfactant: surfactant 0.05% w/V in gellan (0.2% w/v) and pectin (0.75% w/v) mixture.
Data set [3] deals with human nasal epithelial cell (RPMI-2650)-based monolayer.
The test system of a further data set is RPMI 2650 cells. The conditions noted are these: 0.5% w/v; 24 or 48 h incubation.
Data set [4] can be described thus: In vivo biodistribution and nasal residence (DiR fluorescence, IVIS). The conditions noted are these: 8 h post-nasal administration, DiR-loaded.
Description: (§1) To test our hypothesis, we compared nasal residence time of DiR-loaded mixture of gellan and pectin without or with surfactants.
(§2) In vivo biodistribution and nasal residence. Nasal residence time of the formulation was determine in mice. […] Mice were euthanized at different time points and nasal cavity was harvested and imaged using IVIS (Bruker's In-Vivo Xtreme optical and x-ray in vivo imaging system) at an excitation and emission wavelength of 680/700 nm. Vital organs such as lung, liver, spleen, kidney, and heart, were also imaged at 2 and 24 h time points. To determine the mechanism of long residence time, animals were intranasally instilled with DiR-mixed gellan (0.02% w/v) and pectin (0.75% w/v) mixture without or with BKC and tween-80. After 8 h, animals were euthanized to harvest and image the nasal cavity using Perkin Elmer IVIS Lumina II and the total flux was expressed in (p/sec/m^2/sr).
Another data set has as its system SARS-CoV-2 mNG. The data set is described as follows: In vitro neutralization assay with SARS-CoV-2 (focus-forming assay in Vero E6 cells). It counts as cell-based.
In data set [5] the test system is Escherichia coli (E. coli). The data set is described as follows: In vitro neutralization assay with bacteria (CFU), E. coli. It counts as cell-based. To be noted: incubation time of 30 min.
Protocol: (§3) Neutralization was determined by measuring the bactericidal activity. Each agent was individually incubated with either E. coli or K. pneumoniae for 30 or 60 min, followed by 1-minute centrifugation, and then evaluating the bacterial load in the supernatant using a colony-forming assay.
(§4) An overnight culture of bacteria was prepared in 5 mL tryptic soy broth (TSB, Sigma Aldrich) media. On the day of the experiment, bacteria suspension was adjusted to obtain an OD600 nm=0.2, which corresponds to 10^8 CFU/mL. […] After incubation, the sample/bacteria mixture was 10-fold serially diluted in 1×PBS, and 10 mL of each dilution was plated onto pre-poured LB (Luria Broth, HiMedia Laboratories Pvt Ltd) agar plates followed by an incubation of 16-18 h at 37° C., 5% CO2. The plates were then counted for CFUs.
For the next data set, the system named is Klebsiella pneumoniae. Put plainly: In vitro neutralization assay with bacteria (CFU), K. pneumoniae. The conditions noted are these: incubation time of 30 min. It counts as cell-based.
For data set [6] the following is noted: mouse, in vivo.
Description: as §1, §2

Protocol for Klebsiella pneumoniae: as §3, §4

As for “polyoxyethylene 20 sorbitan monooleate [Tween-80]”, the “reduction in IAV viral titer in host cells in comparison to PBS” value in [1] is listed as 1 log fold. Further, the “fluorescence intensity (droplet capture) relative to mucus or biopolymer mixture without surfactant” value in data set [2] stood at 4 fold. Further, the “transient dip in TEER immediately after addition” value in data set [3] (irrespective of the concentrations evaluated) was “less than 15%”. The “time for TEER to reverse to original value after replacing with fresh medium” value in [3] (medium replaced at 4 h) is “less than 1 h”. In addition, in the data set with RPMI 2650 cells, the “metabolic activity of RPMI-2650 cells” value was “significant reduction in the metabolic activity”. Also, the “nasal residence of gellan and pectin mixture on addition of surfactant” value in [4] is recorded as “significantly enhanced the nasal residence”.
Turning to “Triton X-100 [Triton-X, reference compound]”, the “change in TEER (in words)” value in data set [3] (Triton-X 0.1% w/v, negative control) is recorded as “permanent change in the TEER”.
With benzalkonium chloride [BKC], the “reduction in IAV viral titer in host cells in comparison to PBS” value in data set [1] is given as 1 log fold. The “minimum concentration required to achieve >4-log fold (>99.99%) reduction in SARS-CoV-2 viral load” value with SARS-CoV-2 mNG is recorded as 0.01 % w/v. Moreover, in the data set with SARS-CoV-2 mNG (10 or 60 min incubation, agent evaluated individually), the “reduction in SARS-CoV-2 viral load in host cells” value is 5 log fold and > 99.99%. In addition, the “neutralization efficiency of BKC against SARS-CoV-2 in presence of gellan or pectin” value in the data set on SARS-CoV-2 mNG (BKC 0.01% w/v, gellan 0.2% w/v or pectin 0.75% w/v, 10 min) is “not impacted”. The “reduction in colony-forming units (CFU) of E. coli” value in data set [5] was determined as 4 log fold. For the same substance, the “reduction in colony-forming units (CFU) of Klebsiella pneumoniae” value with Klebsiella pneumoniae is 7 log fold. For the same substance, the “capture of respiratory droplets (in words)” value in [2] (BKC at 0.01% w/v) is listed as “didn't increase the capture of respiratory droplets”. In data set [2], the “fluorescence intensity (droplet capture) relative to mucus or biopolymer mixture without surfactant” value is given as 4 fold. For the same substance, the “surfactant concentration above which fluorescence intensity (droplet capture) increased significantly” value in [2] (surfactant combined with gellan/pectin mixture, vs mucus or only biopolymer mixture) is on record as “higher than 0.01 % w/v”. Moreover, the “nasal residence of gellan and pectin mixture on addition of surfactant” value in data set [6] was “significantly enhanced the nasal residence”.
